Data published in PubChem BioAssay (NCI).
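How tested: cells in 96-well plates exposed to compound for 48 hours at five concentrations. Abbreviation: GI50, concentration required for 50% inhibition of growth. The concentration for full growth arrest is given as TGI.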

Assays:
Test in all cases: NCI anticancer screen, dose series, 48 h
[1] = test system: NCI-H460 lung
[2] = test system: NCI-H522 lung
[3] = test system: NCI/ADR-RES ovarian
[4] = test system: OVCAR-3 ovarian
[5] = test system: OVCAR-4 ovarian
[6] = test system: OVCAR-5 ovarian
[7] = test system: OVCAR-8 ovarian
[8] = test system: PC-3 prostate
[9] = test system: RPMI-8226 leukemia
[10] = test system: RXF 393 renal
[11] = test system: SF-268 CNS
[12] = test system: SF-295 CNS
[13] = test system: SF-539 CNS
[14] = test system: SK-MEL-2 melanoma
[15] = test system: SK-MEL-28 melanoma
[16] = test system: SK-MEL-5 melanoma
[17] = test system: SK-OV-3 ovarian
[18] = test system: SN12C renal
[19] = test system: SNB-19 CNS
[20] = test system: SNB-75 CNS
[21] = test system: SR leukemia
[22] = test system: SW-620 colon
[23] = test system: T-47D breast
[24] = test system: TK-10 renal
[25] = test system: U251 CNS
[26] = test system: UACC-257 melanoma
[27] = test system: UACC-62 melanoma
[28] = test system: UO-31 renal

In the case of `O=C1/C(=C/c2ccc(Cl)cc2)N=C(c2ccccc2)N1c1cc(C(F)(F)F)ccc1Cl`, the GI50 [1] is reported as 19.4 µM, the TGI [1] is reported as 61.7 µM and the GI50 [2] is reported as 20.1 µM. For the same compound, the TGI [2] was 76 µM, the GI50 [3] was 22.3 µM and the TGI [3] was 77.6 µM. It also gave a GI50 [4] of 17.4 µM, a TGI [4] of 69 µM and a GI50 [5] of 20.2 µM. For the same compound, the TGI [5] was 89.7 µM, the GI50 [6] was 24.9 µM and the TGI [6] was 64.2 µM. For the same compound, the GI50 [7] was 28.6 µM, the TGI [7] was over 100 µM and the GI50 [8] was 20.8 µM. The TGI [8] was 71.8 µM, the GI50 [9] was 21.5 µM and the TGI [9] was 52.1 µM. The GI50 [10] was 27.5 µM, the TGI [10] was over 100 µM and the GI50 [11] was 28.8 µM. It also gave a TGI [11] of over 100 µM, a GI50 [12] of 17.2 µM and a TGI [12] of 48.8 µM. For the same compound, the GI50 [13] was 18.1 µM, the TGI [13] was 44.3 µM and the GI50 [14] was 17.5 µM. The TGI [14] was 45.4 µM, the GI50 [15] was 39.1 µM and the TGI [15] was over 100 µM. For the same compound, the GI50 [16] was 16 µM, the TGI [16] was 29.5 µM and the GI50 [17] was 35.7 µM. The TGI [17] was over 100 µM, the GI50 [18] was 30.5 µM and the TGI [18] was over 100 µM. For the same compound, the GI50 [19] was 36.4 µM, the TGI [19] was over 100 µM and the GI50 [20] was 18.6 µM. The TGI [20] was 78.7 µM, the GI50 [21] was 28.7 µM and the TGI [21] was 68 µM. For the same compound, the GI50 [22] was 28.9 µM, the TGI [22] was over 100 µM and the GI50 [23] was 22.4 µM. The TGI [23] was over 100 µM, the GI50 [24] was 31.7 µM and the TGI [24] was over 100 µM. For the same compound, the GI50 [25] was 22.5 µM, the TGI [25] was over 100 µM and the GI50 [26] was 26.9 µM. For the same compound, the TGI [26] was 99.6 µM, the GI50 [27] was 14 µM and the TGI [27] was 44.9 µM. For the same compound, the GI50 [28] was 19.4 µM and the TGI [28] was over 100 µM.
